Measurements taken from patent US6699868B2, “Pyridazinyl phenyl hydrazones useful against congestive heart failure” (Orion Corporation, priority 2000, dated 2004).

Legend:
skinned cardiac fiber = assay: Calcium sensitizing effect in skinned cardiac fiber; assay type: cell-based, guinea-pig; settings: Cavia porcellus; maximum effect; test compound 0.1-10 μM added cumulatively; calcium (pCa 6.0 or 6.2)-induced tension; room temperature; read-out: Change in force/ % change from control (maximum calcium sensitizing effect in skinned fiber)
Protocol: Experiment 1. Calcium sensitizing effect in skinned cardiac fiber
The heart of a guinea-pig was excised and perfused with ice-cold saponin (125 mg/l) skinning solution consisting of (mM): K^+-acetate 74.7. EGTA-Na2 10, MgSO4 5.4, ATP-Na2 4, MOPS 20, pH 7.0 (by 1 M KOH). Left ventricular papillary muscle was dissected and sonicated at 10 Watt for 60 s. The distance between ultrasound probe and the papillary muscle was 10 mm. The fibres (<200 μm in diameter) were dissected from the surface of sonicated papillary muscles in the same solution.
The fibre was glued between platinum wires, one attached to an isometric force transducer (type AE-801,SensoNor, Horten, Norway) and another to a micro manipulator. The fibre was relaxed in a solution consisting of (mM): EGTA-Na2 10, MgSO4 5.4, ATP-Na2 4, MOPS 20. The pH of the solution was adjusted to 7.0 and ionic strength to 0.16 M by the addition of KOH and K^+-acetate. Creatine kinase and creatine phosphate were not added as an ATP generating system because the developed tension was well sustained for the time required for experiment. The calculations for ionic strength and for free calcium (pCa 7.0-6.2) were performed using a suitable program. The fibres were stretched in relaxing solution until resting tension was just noticeable. When the calcium (pCa 6.0 or 6.2)-induced tension had reached steady state the test compound (final concentrations 0.1, 0.3, 1, 3,and 10 μM) was cumulatively added into the solution at 6 min intervals. All the experiments were carried out with fresh fibres at normal room temperature.

isolated heart = assay: Effect in left ventricular pressure derivatives in isolated heart (Langendorff); settings: Cavia porcellus; isolated guinea-pig heart, constant pressure 50 mmHg, 37° C.; read-out: EC50 on maximal positive derivative of the left ventricular systolic pressure
Protocol: Experiment 2. Effect in left ventricular pressure derivatives in isolated heart
After sacrification the heart of a guinea-pig was rapidly excised and rinsed in oxygenated perfusion buffer. A cannula was inserted into the aorta and secured with a ligature. Retrograde perfusion began as soon as the heart was placed in a thermostatically controlled moist chamber of the Langendorff apparatus (Hugo Sachs Elektronik, KG). Modified Tyrode solution (37° C.), equilibrated in a thermostatically controlled bulb oxygenator with carbogen (95% O2 and 5% CO2), was used as a perfusion buffer. The composition of the Tyrode solution was (in mM): NaCl 135; MgCl2×6H2O 1; KCl 5; CaCl2×2H2O 2; NaHCO3 15; Na2HPO4×2H2O 1; glucose 10; pH 7.3-7.4. The perfusion buffer was delivered at the top of the oxygenator by a pump and driven automatically by its controller. Subsequently, the buffer was delivered into the bulbs of the oxygenator chamber by a rotating disk. It was dispersed by making a thin fluid film on a large inner oxygenator surface in O2/CO2 atmosphere leading to saturation of the perfusate with oxygen (partial pressure 660 mmHg at 37° C.).
The experiments were carried out under constant pressure condition (50 mmHg). After a short prestabilization (10 min) a latex balloon (size 4) was carefully placed into the left ventricle through the left pulmonary vein and the left atrium. The latex balloon was attached to a stainless-steel cannula coupled with a pressure transducer. The latex balloon, the cannula and the chamber of the pressure transducer were carefully filled with ethylene glycol/water (1:1) mixture avoiding any air-bubble. The isovolumetric left ventricular pressure was recorded through the pressure transducer. At the beginning of the experiment, the volume of the balloon was adjusted to obtain a diastolic pressure of approximately 5 mmHg. Before starting the experiment the heart was allowed to stabilise further for 30-50 min. The systolic and end-diastolic left ventricular pressures were recorded for calculating the maximal positive and negative derivatives of the left ventricular pressure.

EC50 (isolated heart) [nM]	melting point [°C]	Compound	Emax (skinned cardiac fiber) [%]
400	259 to 261	CC(=NNc1ccc(C2=NNC(=O)CC2C)cc1)c1ccc(O)cc1O (stereo not drawn) [Example 33, 6-(4-{N′-[1-(2,4-Dihydroxy-phenyl)-ethylidene]-hydrazino}-phenyl)-5-methyl-4,5-dihydro-2H-pyridazin-3-one]	55.2
310	279 to 284	CC(=NNc1ccc(C2=NNC(=O)CC2C)cc1)c1cc(O)ccc1O (stereo not drawn) [Example 35, 6-(4-{N′-[1-(2,5-Dihydroxy-phenyl)-ethylidene]-hydrazino}-phenyl)-5-methyl-4,5-dihydro-2H-pyridazin-3-one]	25.4
710	238 to 240	CCc1c(O)ccc(C=NNc2ccc(C3=NNC(=O)CC3C)cc2)c1O (stereo not drawn) [Example 40, 6-{4-[N′-(3-Ethyl-2,4-dihydroxy-benzylidene)-hydrazino]-phenyl}-5-methyl-4,5-dihydro-2H-pyridazin-3-one]	100
1750	160 to 170	CCCc1c(O)ccc(C=NNc2ccc(C3=NNC(=O)CC3C)cc2)c1O (stereo not drawn) [Example 43, 6-{4-[N′-(2,4-Dihydroxy-3-propyl-benzylidene)-hydrazino]-phenyl}-5-methyl-4,5-dihydro-2H-pyridazin-3-one]	39
